# Laboratory results taken from US20060172993A1 (priority 2002, published 2006).
# Tested on: Patients diagnosed with Alzheimer's Disease
# Assay: Adverse events / safety monitoring in the trial
# Assay type: in vivo, human
# Protocol: Subjects in the Placebo group received 21 weeks (5 months) of placebo medication.
# The safety of the drug was also monitored throughout the study. Blood samples for biochemistry and haematology and random urine sample for urinalysis were taken at each visit and at completion for all efficacy testing. Systolic and diastolic blood pressure were measured in the sitting position, pulse and vital signs were recorded at each visit.
smiles,measurement,setting,value
"COc1ccc2c3c1O[C@H]1C[C@@H](O)C=C[C@@]31CCN(C)C2 [GAL, galantamine]","Serious adverse event Basal cell carcinoma, % of patients",16 mg/day,(0.0%)
same,"Serious adverse event Basal cell carcinoma, number of patients",16 mg/day,0
same,"Serious adverse event Breast neoplasm female, % of patients",16 mg/day,(0.0%)
same,"Serious adverse event Breast neoplasm female, number of patients",16 mg/day,0
same,"Serious adverse event Cardiac failure, % of patients",16 mg/day,(1.1%)
same,"Serious adverse event Cardiac failure, number of patients",16 mg/day,3
same,"Serious adverse event Dehydration, % of patients",16 mg/day,(1.1%)
same,"Serious adverse event Dehydration, number of patients",16 mg/day,3
same,"Serious adverse event Diarrhea, % of patients",16 mg/day,(1.1%)
same,"Serious adverse event Diarrhea, number of patients",16 mg/day,3
same,"Serious adverse event Dyspnea, % of patients",16 mg/day,(0.7%)
same,"Serious adverse event Dyspnea, number of patients",16 mg/day,2
same,"Serious adverse event Fall, % of patients",16 mg/day,(0.4%)
same,"Serious adverse event Fall, number of patients",16 mg/day,1
same,"Serious adverse event Gi haemorrhage, % of patients",16 mg/day,(0.0%)
same,"Serious adverse event Gi haemorrhage, number of patients",16 mg/day,0
same,"Serious adverse event Injury, % of patients",16 mg/day,(0.4%)
same,"Serious adverse event Injury, number of patients",16 mg/day,1
same,"Serious adverse event Myocardial infarction, % of patients",16 mg/day,(0.4%)
same,"Serious adverse event Myocardial infarction, number of patients",16 mg/day,1
same,"Serious adverse event Nausea, % of patients",16 mg/day,(0.7%)
same,"Serious adverse event Nausea, number of patients",16 mg/day,2
same,"Serious adverse event Pneumonia, % of patients",16 mg/day,(0.7%)
same,"Serious adverse event Pneumonia, number of patients",16 mg/day,2
same,"Serious adverse event Sepsis, % of patients",16 mg/day,(0.0%)
same,"Serious adverse event Sepsis, number of patients",16 mg/day,0
same,"Serious adverse event Surgical intervention, % of patients",16 mg/day,(1.1%)
same,"Serious adverse event Surgical intervention, number of patients",16 mg/day,3
same,"Serious adverse event Syncope, % of patients",16 mg/day,(1.4%)
same,"Serious adverse event Syncope, number of patients",16 mg/day,4
same,"Serious adverse event Thrombophlebitis deep, % of patients",16 mg/day,(0.0%)
same,"Serious adverse event Thrombophlebitis deep, number of patients",16 mg/day,0
same,"Serious adverse event Transient ischemic attack, % of patients",16 mg/day,(0.7%)
same,"Serious adverse event Transient ischemic attack, number of patients",16 mg/day,2
same,"Serious adverse event Urinary tract infection, % of patients",16 mg/day,(0.7%)
same,"Serious adverse event Urinary tract infection, number of patients",16 mg/day,2
same,"Serious adverse event Vomiting, % of patients",16 mg/day,(0.7%)
same,"Serious adverse event Vomiting, number of patients",16 mg/day,2
same,"Total patients with any SAE, %",16 mg/day,(10.0%)
same,"Total patients with any SAE, number",16 mg/day,28
same,"Adverse event Agitation, % of patients",24 mg/day,(8.1%)
same,"Adverse event Agitation, number of patients",24 mg/day,22
same,"Adverse event Anorexia, % of patients",24 mg/day,(8.8%)
same,"Adverse event Anorexia, number of patients",24 mg/day,24
same,"Adverse event Depression, % of patients",24 mg/day,(8.%)
same,"Adverse event Depression, number of patients",24 mg/day,22
same,"Adverse event Diarrhea, % of patients",24 mg/day,(5.5%)
same,"Adverse event Diarrhea, number of patients",24 mg/day,15
same,"Adverse event Dizziness, % of patients",24 mg/day,(7.0%)
same,"Adverse event Dizziness, number of patients",24 mg/day,19
same,"Adverse event Dyspepsia, % of patients",24 mg/day,(5.5%)
same,"Adverse event Dyspepsia, number of patients",24 mg/day,15
same,"Adverse event Edema peripheral, % of patients",24 mg/day,(2.6%)
same,"Adverse event Edema peripheral, number of patients",24 mg/day,7
same,"Adverse event Fall, % of patients",24 mg/day,(4.4%)
same,"Adverse event Fall, number of patients",24 mg/day,12
same,"Adverse event Headache, % of patients",24 mg/day,(4.8%)
same,"Adverse event Headache, number of patients",24 mg/day,13
same,"Adverse event Injury, % of patients",24 mg/day,(5.9%)
same,"Adverse event Injury, number of patients",24 mg/day,16
same,"Adverse event Nausea, % of patients",24 mg/day,(16.5%)
same,"Adverse event Nausea, number of patients",24 mg/day,45
same,"Adverse event Rhinitis, % of patients",24 mg/day,(4.0%)
same,"Adverse event Rhinitis, number of patients",24 mg/day,11
same,"Adverse event Urinary tract infection, % of patients",24 mg/day,(8.1%)
same,"Adverse event Urinary tract infection, number of patients",24 mg/day,22
same,"Adverse event Vomiting, % of patients",24 mg/day,(9.9%)
same,"Adverse event Vomiting, number of patients",24 mg/day,27
same,"Adverse event Weight decrease, % of patients",24 mg/day,(4.8%)
same,"Adverse event Weight decrease, number of patients",24 mg/day,13
same,"Adverse event of clinical interest Bradycardia, % of patients",24 mg/day,(2.9%)
same,"Adverse event of clinical interest Bradycardia, number of patients",24 mg/day,8
same,"Adverse event of clinical interest Convulsions, % of patients",24 mg/day,(0.4%)
same,"Adverse event of clinical interest Convulsions, number of patients",24 mg/day,1
same,"Adverse event of clinical interest Fatigue, % of patients",24 mg/day,(4.8%)
same,"Adverse event of clinical interest Fatigue, number of patients",24 mg/day,13
same,"Adverse event of clinical interest Muscle weakness, % of patients",24 mg/day,(0.4%)
same,"Adverse event of clinical interest Muscle weakness, number of patients",24 mg/day,1
same,"Adverse event of clinical interest Syncope, % of patients",24 mg/day,(3.3%)
same,"Adverse event of clinical interest Syncope, number of patients",24 mg/day,9
same,"Serious adverse event Abdominal pain, % of patients",24 mg/day,(0.0%)
same,"Serious adverse event Abdominal pain, number of patients",24 mg/day,0
same,"Serious adverse event Agitation, % of patients",24 mg/day,(0.0%)
same,"Serious adverse event Agitation, number of patients",24 mg/day,0
same,"Serious adverse event Asthenia, % of patients",24 mg/day,(0.4%)
same,"Serious adverse event Asthenia, number of patients",24 mg/day,1
same,"Serious adverse event Basal cell carcinoma, % of patients",24 mg/day,(0.7%)
same,"Serious adverse event Basal cell carcinoma, number of patients",24 mg/day,2
same,"Serious adverse event Breast neoplasm female, % of patients",24 mg/day,(0.0%)
same,"Serious adverse event Breast neoplasm female, number of patients",24 mg/day,0
same,"Serious adverse event Cardiac failure, % of patients",24 mg/day,(0.0%)
same,"Serious adverse event Cardiac failure, number of patients",24 mg/day,0
same,"Serious adverse event Dehydration, % of patients",24 mg/day,(0.0%)
same,"Serious adverse event Dehydration, number of patients",24 mg/day,0
same,"Serious adverse event Diarrhea, % of patients",24 mg/day,(0.0%)
same,"Serious adverse event Diarrhea, number of patients",24 mg/day,0
same,"Serious adverse event Dyspnea, % of patients",24 mg/day,(1.1%)
same,"Serious adverse event Dyspnea, number of patients",24 mg/day,3.
same,"Serious adverse event Fall, % of patients",24 mg/day,(1.1%)
same,"Serious adverse event Fall, number of patients",24 mg/day,3
same,"Serious adverse event Gi haemorrhage, % of patients",24 mg/day,(0.7%)
same,"Serious adverse event Gi haemorrhage, number of patients",24 mg/day,2
same,"Serious adverse event Injury, % of patients",24 mg/day,(1.8%)
same,"Serious adverse event Injury, number of patients",24 mg/day,5
same,"Serious adverse event Myocardial infarction, % of patients",24 mg/day,(0.4%)
same,"Serious adverse event Myocardial infarction, number of patients",24 mg/day,1
same,"Serious adverse event Nausea, % of patients",24 mg/day,(0.0%)
same,"Serious adverse event Nausea, number of patients",24 mg/day,0
same,"Serious adverse event Pneumonia, % of patients",24 mg/day,(1.1%)
same,"Serious adverse event Pneumonia, number of patients",24 mg/day,3
same,"Serious adverse event Sepsis, % of patients",24 mg/day,(0.0%)
same,"Serious adverse event Sepsis, number of patients",24 mg/day,0
same,"Serious adverse event Surgical intervention, % of patients",24 mg/day,(0.0%)
same,"Serious adverse event Surgical intervention, number of patients",24 mg/day,0
same,"Serious adverse event Syncope, % of patients",24 mg/day,(1.8%)
same,"Serious adverse event Syncope, number of patients",24 mg/day,5
same,"Serious adverse event Thrombophlebitis deep, % of patients",24 mg/day,(0.7%)
same,"Serious adverse event Thrombophlebitis deep, number of patients",24 mg/day,2
same,"Serious adverse event Transient ischemic attack, % of patients",24 mg/day,(0.0%)
same,"Serious adverse event Transient ischemic attack, number of patients",24 mg/day,0
same,"Serious adverse event Urinary tract infection, % of patients",24 mg/day,(0.0%)
same,"Serious adverse event Urinary tract infection, number of patients",24 mg/day,0
same,"Serious adverse event Vomiting, % of patients",24 mg/day,(0.4%)
same,"Serious adverse event Vomiting, number of patients",24 mg/day,1
same,Syncope incidence,24 mg/day,slight dose-related increase in incidence
same,"Total patients with any SAE, %",24 mg/day,(12.8%)
same,"Total patients with any SAE, number",24 mg/day,35
same,"Occurrence of nausea, vomiting and anorexia","8, 16, 24 mg/day",mild dose-related occurrence at a relatively low incidence
same,Bradycardia incidence compared with placebo,all galantamine doses,higher incidence
same,Incidence of serious adverse events,all treatment groups,comparable across all treatment groups
same,Deaths related to trial medication,throughout the trial,No death was considered by the investigator to be related to trail medication
